Numbers after ± are expanded uncertainties.
How the values were obtained:
[1] = 101 kPa, Liquid
[2] = xn = mol fraction of the nth substance listed; conditions: 101 kPa, Liquid, x2 = 0

mass density ([1]; 298.15 K)	viscosity ([1]; 298.15 K)	mass density ([1]; 303.15 K)	viscosity ([1]; 303.15 K)	mass density ([1]; 308.15 K)	viscosity ([1]; 308.15 K)	mass density ([1]; 313.15 K)	viscosity ([1]; 313.15 K)	mass density ([1]; 318.15 K)	viscosity ([1]; 318.15 K)	viscosity ([2]; 298.15 K)	viscosity ([2]; 303.15 K)	viscosity ([2]; 308.15 K)	viscosity ([2]; 313.15 K)	viscosity ([2]; 318.15 K)	SMILES
1096.29 ± 0.28 kg/m3	1.996 ± 0.024 mPa·s	1091.44 ± 0.28 kg/m3	1.836 ± 0.022 mPa·s	1086.41 ± 0.27 kg/m3	1.669 ± 0.02 mPa·s	1081.59 ± 0.26 kg/m3	1.535 ± 0.019 mPa·s	1076.46 ± 0.25 kg/m3	1.393 ± 0.017 mPa·s						C[S+](C)[O-] [dimethyl sulfoxide]
										0.8901 ± 0.012 mPa·s	0.7973 ± 0.011 mPa·s	0.7193 ± 0.0098 mPa·s	0.653 ± 0.009 mPa·s	0.5961 ± 0.0083 mPa·s	O [water] + C[S+](C)[O-]

Reference: the NIST ThermoML archive (doi:10.1016/j.jct.2006.12.012)
